Measured values as given in patent publication US20230321133A1, “COMPOSITIONS AND METHODS FOR TREATING BACTERIAL INFECTIONS” (THE TRUSTEES OF DARTMOUTH COLLEGE, priority 2020, published 2023).
≈ marks a conversion by molar mass, not a printed value. Where two headings read alike, the source gives them in different places.

Legend:
P. aeruginosa proteins = experiment: Unbiased proteomic (LC-MS/MS) analysis of P. aeruginosa exposed to EV; type: cell-based, Pseudomonas aeruginosa; conditions: 0.1 μg/ml aztreonam
From the text: EV targets MexGHI-OpmD, a multidrug efflux pump that contributes to resistance to fluoroquinolone antibiotics including ciprofloxacin. Hyper-expression of RND multidrug efflux pumps is frequent in clinical isolates of P. aeruginosa and contributes to the development of multi-drug resistance phenotypes in the clinical setting^17. To determine if EV containing let-7b target and reduce MexGHI-OpmD, an unbiased proteomic (LC-MS/MS) approach was used, as previously described 27.
Column 1-Genes involved in biofilm formation (PhzE1 and PhzE2 have been identified as targets of let-7b in preliminary experiments). Column 2-Percent change in protein abundance induced by EV, determined by LC-MS/MS. Column 3-IntaRNA targeting score for let-7b for each biofilm gene, indicating a highly energetically favorable interaction between let-7b and the target mRNA^51.
[…]. […] According to the comprehensive antibiotic resistance database (CARD)57, eight of the 15 aztreonam-induced proteins have homology to beta-lactam resistance proteins in other bacteria. […]. […] This prediction is consistent with our observed phenotype of EV inhibition of biofilm formation. […].

[1] = test system: planktonic P. aeruginosa strain PA14; experiment: Planktonic growth yield assays, MIC and NIC of aztreonam; type: cell-based, Pseudomonas aeruginosa; conditions: for MIC: Pseudomonas aeruginosa, read-out: minimal inhibitory concentration (MIC)
[2] = test system: P. aeruginosa strain PA14 biofilm; experiment: Crystal violet biofilm plate assay, strain PA14; conditions: for sub-inhibitory antibiotic concentration for biofilm formation: PA14, absence of EVs; for biofilm formation, antibiotics alone: PA14, aztreonam 0.1 μg/ml or carbenicillin 5 μg/ml, no EVs
Method: Studies were also conducted to examine the time course of EV inhibition of biofilm formation using the crystal violet plate assay. […] Studies were conducted to determine if EV increase the ability of 3-lactam antibiotics to inhibit planktonic growth and biofilm formation by P. aeruginosa using the crystal violet biofilm plate assay^64. The subthreshold concentration of ATM (0.1 μg/ml) and CAR (5 μg/ml) for biofilm formation by P. aeruginosa in the absence of EV was determined.

[3] = test system: clinical isolates of P. aeruginosa; experiment: Crystal violet biofilm plate assay, clinical isolates; conditions: six clinical isolates, carbenicillin 20 μg/ml, absence of EVs
Method: It was also assessed whether EVs increase the ability of aztreonam to inhibit biofilm formation by clinical isolates of P. aeruginosa.

Compound | PA14_48790 and PA14_16020 abundance (P. aeruginosa proteins) | beta-lactamase AmpC abundance (P. aeruginosa proteins; 16 hours, p<0.05) | number of proteins significantly induced by at least 50% (P. aeruginosa proteins; p<0.05 and log 2 fold change>0.58, in addition to AmpC) | planktonic growth ([1]; PA14, aztreonam 0.8 μg/ml alone compared to controls) | non-inhibitory concentration (NIC) ([1]; PA14, control (no EVs)) [µg/mL] | non-inhibitory concentration (NIC) ([1]; PA14, with EVs) [µg/mL] | MIC ([1]; PA14, PA14, control (no EVs)) [µg/mL] | MIC ([1]; PA14, PA14, with EVs) [µg/mL] | sub-inhibitory antibiotic concentration for biofilm formation [2] [µg/mL] | biofilm formation, antibiotics alone [2] | biofilm formation [3]
C[C@H]1[C@H](NC(=O)/C(=N\OC(C)(C)C(=O)O)c2csc(N)n2)C(=O)N1S(=O)(=O)O [aztreonam] | significantly induced | significantly induced | 15 | significantly reduced | 0.6 | 0.1 | 2 (≈ 4.59 µM) | 0.8 (≈ 1.84 µM) | 0.1 | did not significantly alter | –
CC1(C)S[C@@H]2[C@H](NC(=O)C(C(=O)O)c3ccccc3)C(=O)N2[C@H]1C(=O)O (stereo partly shown) [carbenicillin] | – | – | – | – | – | – | – | – | 5 | did not significantly alter | did not significantly reduce
